The text below walks through data of US7550456B2, “Substituted aryl cycloalkanoyl derivatives and methods of their use” (Wyeth, priority 2003, dated 2009).

Where a name gives a salt, the structure may show the parent alone.

Broadly, the inhibition is the change of the read-out against control, counted positive when it falls. What is called EC50 is the concentration giving half of the maximal effect.

T1 sequence (P23975 whole entry): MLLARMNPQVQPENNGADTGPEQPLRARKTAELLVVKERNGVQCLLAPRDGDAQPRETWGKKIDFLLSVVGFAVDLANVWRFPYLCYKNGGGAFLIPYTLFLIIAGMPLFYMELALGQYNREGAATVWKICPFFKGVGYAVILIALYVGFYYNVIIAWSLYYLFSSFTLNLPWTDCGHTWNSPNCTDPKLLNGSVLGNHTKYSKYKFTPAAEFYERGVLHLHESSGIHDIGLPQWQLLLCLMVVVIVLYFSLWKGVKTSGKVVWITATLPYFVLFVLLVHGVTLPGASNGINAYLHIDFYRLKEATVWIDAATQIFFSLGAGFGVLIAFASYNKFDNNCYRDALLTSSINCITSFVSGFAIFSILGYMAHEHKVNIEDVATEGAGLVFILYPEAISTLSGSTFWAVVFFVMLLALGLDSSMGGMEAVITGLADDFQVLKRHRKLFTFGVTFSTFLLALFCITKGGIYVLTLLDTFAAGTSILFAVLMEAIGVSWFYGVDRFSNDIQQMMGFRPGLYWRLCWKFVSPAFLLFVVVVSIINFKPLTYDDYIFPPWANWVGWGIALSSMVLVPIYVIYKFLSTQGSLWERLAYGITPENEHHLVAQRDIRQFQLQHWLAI

One test concerns the target T1, human hNET (Homo sapiens, UniProt P23975).
T1 construct: expressed in transfected cells; host or cells: MDCK-Net6 (MDCK cells, stably transfected)
Put plainly: Norepinephrine (NE) uptake assay in MDCK-Net6 cells. Type of test: cell-based. The note with it: 1 μM test compound, [3H]NE uptake, dihydrochloride, 1 µM. The essentials:
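Radiolabelled NE uptake was counted by scintillation after NaOH lysis, with 1 µM desipramine defining non-specific uptake. EC50 came from a logistic dose-response fit.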
`OC1([C@H](CN2CCNCC2)c2cccc(OC(F)(F)F)c2)CCCCC1` [Example 243, 1-{(1S)-2-piperazin-1-yl-1-[3-(trifluoromethoxy)phenyl]ethyl}cyclohexanol dihydrochloride]: the “% Inhibition @ 1 μM (hNET)” value came to 91%.

The test is the same for the next values; noted with them: 1 μM test compound, [3H]NE uptake, read-out: % Inhibition @ 1 μM (hNET).
With `OC1(C(CN2CCNCC2)c2ccc(OCCc3ccc(F)cc3)cc2)CCCCC1` (centres unmarked) [Example 462, 1-(1-{4-[2-(4-fluorophenyl)ethoxy]phenyl}-2-piperazin-1-ylethyl)cyclohexanol dihydrochloride], the inhibition at 1 µM turned out to be 47%.

In the case of `OC1(C(CN2CCNCC2)c2ccc(-c3ccc(Cl)c(Cl)c3)cc2)CCC1` (centres unmarked) [Example 184, 1-[1-(3′,4′-dichloro-1,1′-biphenyl-4-yl)-2-piperazin-1-ylethyl]cyclobutanol dihydrochloride], the inhibition at 1 µM came out at 40%.

For `OC1(C(CN2CCNCC2)c2cccc(-c3ccc(Cl)c(Cl)c3)c2)CCCCC1` (centres unmarked) [Example 135, 1-[1-(3′,4′-dichloro-1,1′-biphenyl-3-yl)-2-piperazin-1-ylethyl]cyclohexanol dihydrochloride], the inhibition at 1 µM was 65%.

For the compound `OC1(C(CN2CCNCC2)c2ccc(OCCc3ccccc3)c(Cl)c2)CCCCC1` (centres unmarked) [Example 452, 1-{1-[3-chloro-4-(2-phenylethoxy)phenyl]-2-piperazin-1-ylethyl}cyclohexanol dihydrochloride], the inhibition at 1 µM was 35%.

On to `CC(CCN1CCN(C[C@H](c2cccc(OC(F)(F)F)c2)C2(O)CCCCC2)CC1)c1ccccc1` (stereo partly drawn) [Example 347, 1-{(1S)-2-[4-(3-phenylbutyl)piperazin-1-yl]-1-[3-(trifluoromethoxy)phenyl]ethyl}cyclohexanol dihydrochloride], for which the inhibition at 1 µM worked out at 92%.

In the case of `CC(C)COc1ccc(C(CN2CCN(C)CC2)C2(O)CCCCC2)cc1OC(F)(F)F` (centres unmarked) [Example 407, 1-[1-[4-isobutoxy-3-(trifluoromethoxy)phenyl]-2-(4-methylpiperazin-1-yl)ethyl]cyclohexanol dihydrochloride], the inhibition at 1 µM amounted to 12%.

Regarding `COc1ccc(C(CN2CCNCC2)C2(O)CCCCC2)cc1-c1cccc(OC(F)(F)F)c1` (centres unmarked) [Example 251, 1-{1-[6-methoxy-3′-(trifluoromethoxy)-1,1′-biphenyl-3-yl]-2-piperazin-1-ylethyl}cyclohexanol dihydrochloride], the inhibition at 1 µM was 47%.

Turning to `OC1([C@H](CN2CCNCC2)c2ccc(OCc3ccccc3)c(Cl)c2)CCCCC1` [Example 324, 1-{(1S)-1-[4-(benzyloxy)-3-chlorophenyl]-2-piperazin-1-ylethyl}cyclohexanol dihydrochloride], the inhibition at 1 µM came to 98.4%.

Turning to `CN1CCN(CC(c2cccc(Oc3ccccc3)c2)C2(O)CCCCC2)CC1` (centres unmarked) [Example 312, 1-[2-(4-methylpiperazin-1-yl)-1-(3-phenoxyphenyl)ethy]cyclohexanol dihydrochloride], the inhibition at 1 µM turned out to be 57.3%.

Regarding `CN1CCN(CC(c2ccc(Oc3cccc4ccccc34)cc2)C2(O)CCCCC2)CC1` (centres unmarked) [Example 399, 1-{2-(4-methylpiperazin-1-yl)-1-[4-(1-naphthyloxy)phenyl]ethyl}cyclohexanol dihydrochloride], the inhibition at 1 µM is 17%.

For the compound `COc1ccc(C(CN2CCNCC2)C2(O)CCCCC2)cc1-c1ccc(Cl)c(Cl)c1` (centres unmarked) [Example 252, 1-[1-(3′,4′-dichloro-6-methoxy-1,1′-biphenyl-3-yl)-2-piperazin-1-ylethyl]cyclohexanol dihydrochloride], the inhibition at 1 µM was determined as 35%.

Turning to `OC1(C(CN2CCNCC2)c2ccc(-c3cc(Cl)cc(Cl)c3)cc2)CCC1` (centres unmarked) [Example 185, 1-[1-(3′,5′-dichloro-1,1′-biphenyl-4-yl)-2-piperazin-1-ylethyl]cyclobutanol dihydrochloride], the inhibition at 1 µM was determined as 27%.

In the case of `C[C@@H]1CN(C[C@H](c2cccc(OC(F)(F)F)c2)C2(O)CCCCC2)CCN1C` [Example 370, 1-{(1S)-2-[(3R)-3,4-dimethylpiperazin-1-yl]-1-[3-(trifluoromethoxy)phenyl]ethyl}cyclohexanol dihydrochloride], the inhibition at 1 µM was determined as 79%.

Take `OC1([C@@H](CN2CCNCC2)c2ccc(OCc3ccccc3)c(Cl)c2)CCCCC1` [Example 323, 1-{(1R)-1-[4-(benzyloxy)-3-chlorophenyl]-2-piperazin-1-ylethyl}cyclohexanol dihydrochloride]: the inhibition at 1 µM stood at 95.8%.

On to `OC1(C(CN2CCNCC2)c2ccc(OCc3ccccc3C(F)(F)F)cc2)CCCCC1` (centres unmarked) [Example 440, 1-[2-piperazin-1-yl-1-(4-{[2-(trifluoromethyl)benzyl]oxy}phenyl)ethyl]cyclohexanol dihydrochloride], for which the inhibition at 1 µM came to 28%.

In the case of `OC1([C@@H](CN2CCNCC2)c2cccc(Oc3ccccc3)c2)CCCCC1` (single isomer, unassigned) [Example 358, dihydrochloride], the inhibition at 1 µM worked out at 73%.

With `CN1CCN(CC(c2cccc(OCc3ccccc3)c2)C2(O)CCCCC2)CC1` (centres unmarked) [Example 108, 1-[1-[3-(benzyloxy)phenyl]-2-(4-methylpiperazin-1-yl)ethyl]cyclohexanol dihydrochloride], the inhibition at 1 µM came to 0%.

Consider `N#Cc1cc(C(CN2CCNCC2)C2(O)CCCCC2)ccc1OCc1ccccc1` (centres unmarked) [Example 266, 2-(benzyloxy)-5-[1-(1-hydroxycyclohexyl)-2-piperazin-1-ylethyl]benzonitrile dihydrochloride], for which the inhibition at 1 µM amounted to 91%.

`COc1ccc(C(CN2CCNCC2)C2(O)CCCCC2)cc1-c1ccccc1` (centres unmarked) [Example 254, 1-[1-(6-methoxy-1,1′-biphenyl-3-yl)-2-piperazin-1-ylethyl]cyclohexanol dihydrochloride]: the inhibition at 1 µM is 29%.

Regarding `OC1(C(CN2CCNCC2)c2ccccc2-c2ccc(Cl)c(Cl)c2)CCCCC1` (centres unmarked) [Example 148, 1-[1-(3′,4′-dichloro-1,1′-biphenyl-2-yl)-2-piperazin-1-ylethyl]cyclohexanol dihydrochloride], the inhibition at 1 µM is 32%.

For `CN1CCN(CC(c2ccc(-c3cccc([N+](=O)[O-])c3)cc2)C2(O)CCCCC2)CC1` (centres unmarked) [Example 178, 1-[2-(4-methylpiperazin-1-yl)-1-(3′-nitro-1,1′-biphenyl-4-yl)ethyl]cyclohexanol dihydrochloride], the inhibition at 1 µM came out at 33%.

Take `OC1(C(CN2CCN(CC3CCCCC3)CC2)c2ccc(OC(F)(F)F)cc2)CCCCC1` (centres unmarked) [Example 286, 1-{2-[4-(cyclohexylmethyl)piperazin-1-yl]-1-[4-(trifluoromethoxy)phenyl]ethyl}cyclohexanol dihydrochloride]: the inhibition at 1 µM amounted to 78.6%.

For the compound `OC1(C(CN2CCN(Cc3ccc4c(c3)OCO4)CC2)c2ccc(OC(F)(F)F)cc2)CCCCC1` (centres unmarked) [Example 285, 1-{2-[4-(1,3-benzodioxol-5-ylmethyl)piperazin-1-yl]-1-[4-(trifluoromethoxy)phenyl]ethyl}cyclohexanol dihydrochloride], the inhibition at 1 µM amounted to 20%.

As for `CC(C)(O)CN1CCN(CC(c2cccc(OC(F)(F)F)c2)C2(O)CCCCC2)CC1` (single isomer, unassigned) [Example 372, 1-{2-[4-(2-hydroxy-2-methylpropyl)piperazin-1-yl]-1-[3-(trifluoromethoxy)phenyl]ethyl}cyclohexanol dihydrochloride], the inhibition at 1 µM is 37%.

The test is the same for the next values; noted with them: [3H]NE uptake, test range 1 to 10,000 nM.
For the compound `OC1(C(CN2CCNCC2)c2cccc(-c3ccc(Cl)c(Cl)c3)c2)CCCCC1` (centres unmarked) [Example 135, 1-[1-(3′,4′-dichloro-1,1′-biphenyl-3-yl)-2-piperazin-1-ylethyl]cyclohexanol dihydrochloride], a half-maximal response (EC50) required 635 nM.
